The results in this text go back to patent US7932266B2, “Isoquinoline derivatives as calpain inhibitors” (Consejo Superior de Investigaciones Cientificas, priority 2004, dated 2011).

Data set [1] concerns calpain. The experiment in a line: Calpain inhibition, first results on earlier isoquinoline derivatives. It is filed as biochemical. The settings on record: simple derivative of isoquinoline without peptide chain; applicant's first results.
Data set [2] concerns the target T1, calpain I from porcine erythrocyte (Sus scrofa, UniProt P35750).
T1 construct: calpain I from porcine erythrocyte (Calbiochem, Cat No 208712) was used as enzyme; purchased Calbiochem 208712; host or cells: porcine erythrocyte (natural source)
T1 sequence (P35750 1-714): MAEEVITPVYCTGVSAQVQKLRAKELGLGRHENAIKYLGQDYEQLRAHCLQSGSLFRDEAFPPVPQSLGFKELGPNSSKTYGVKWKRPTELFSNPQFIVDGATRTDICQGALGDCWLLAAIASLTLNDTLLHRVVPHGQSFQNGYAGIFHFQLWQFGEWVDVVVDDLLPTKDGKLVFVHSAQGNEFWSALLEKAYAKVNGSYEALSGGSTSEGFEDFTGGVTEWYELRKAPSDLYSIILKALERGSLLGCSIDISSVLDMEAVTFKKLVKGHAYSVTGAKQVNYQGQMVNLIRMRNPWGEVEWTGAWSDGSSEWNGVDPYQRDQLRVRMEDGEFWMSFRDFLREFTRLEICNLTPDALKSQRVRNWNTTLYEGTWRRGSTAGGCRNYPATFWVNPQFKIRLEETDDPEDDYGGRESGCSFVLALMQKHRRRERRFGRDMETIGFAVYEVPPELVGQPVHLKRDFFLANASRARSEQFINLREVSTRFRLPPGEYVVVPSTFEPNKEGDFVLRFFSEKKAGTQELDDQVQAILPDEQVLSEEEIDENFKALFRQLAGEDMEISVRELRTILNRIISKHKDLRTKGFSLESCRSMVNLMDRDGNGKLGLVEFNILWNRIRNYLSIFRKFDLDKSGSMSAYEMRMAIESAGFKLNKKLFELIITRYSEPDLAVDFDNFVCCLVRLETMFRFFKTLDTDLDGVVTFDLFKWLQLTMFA
T1 sequence (P04574 1-266 partner): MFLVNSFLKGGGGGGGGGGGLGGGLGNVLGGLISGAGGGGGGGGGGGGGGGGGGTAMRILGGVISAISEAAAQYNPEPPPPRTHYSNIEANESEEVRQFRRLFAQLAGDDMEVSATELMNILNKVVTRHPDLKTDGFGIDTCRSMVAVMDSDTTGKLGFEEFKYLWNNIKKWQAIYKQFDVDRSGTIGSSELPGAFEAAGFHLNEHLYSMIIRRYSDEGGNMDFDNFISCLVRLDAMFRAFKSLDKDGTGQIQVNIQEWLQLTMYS
Nature of the data set: Enzyme activity test: inhibition of calpain (fluorimetric, BODIPY-FL casein substrate). It is filed as biochemical. The settings on record: 7 inhibitor concentrations between 10 nM and 200 μM. The text has this:
The capacity to inhibit calpain has been quantified in terms of the value of IC50, which is defined as the concentration of inhibitor that reduces the catalytic activity of an enzyme by half. The lower the value of IC50, the more powerful the inhibitor. Inhibition results on calpain I (the most relevant from a physiological point of view) of some compounds of the present invention are shown in table 1 and in FIG. 1. Given that calpain II, also known as milli-calpain, needs a greater amount of Ca^2+ for activation, it might not possibly have such a relevant physiological role since such a concentration of Ca^2+ would cause cell death before the milli-calpain could become activated. For this reason, the inhibition tests have been performed for calpain I, though they can be extrapolated for calpain II.
The calpain inhibition capacity has been quantified in terms of the value of IC50, which is defined as the concentration of inhibitor that reduces the catalytic activity of an enzyme by half. The lower the value of IC50, the more powerful the inhibitor. Inhibition results on calpain I (the most relevant from a physiological point of view) of some compounds of the present invention are shown in table 1 and in FIG. 1.
The experiments were conducted spectrofluorimetrically using a Spectrofluor Tecan Corp 93382 spectrofluorimeter, exciting at […] and measuring at […]. Casein marked with BODIPY-FL® (Molecular Probes) was used as substrate and calpain I from porcine erythrocyte (Calbiochem, Cat No 208712) was used as enzyme. The freeze-dried substrate is component A of the protease assay kit EnzChek® green fluorescence from Molecular Probes (reference # E-6638); component B, known as 20× digestion buffer, contains 13 mL of 200 mM Tris-HCl, pH 7.8 and 2 mM sodium azide. The commercial calpain I that was used has a concentration of 1 mg in 1 mL of aqueous solution (the solution is 20 mM imidazol-HCl, pH 6.8, 1 mM EDTA, 1 mM EGTA, 5 mM β-mercaptoethanol, containing 30% glycerine).
2.5 mL of 20× digestion buffer (component B of the kit from Molecular Probes) was diluted with water to a total volume of 50 mL.
200 μg of freeze-dried substrate (component A of the kit from Molecular Probes) was dissolved in 200 μL of phosphate saline buffer. This solution was decanted into a graduated flask and diluted with the digestion solution to a total volume of 40 mL.
20 μL of commercial solution of calpain was diluted with the digestion solution to a total volume of 200 μL.
The inhibitor was dissolved in DMSO. Each inhibitor was assayed at 7 different concentrations between 10 nM and 200 μM.
All the data were obtained measuring the variation in fluorescence with time. The use of a multi-cell device and Eppendorf multi-channel pipettes permitted measurement of the variation in fluorescence in up to 64 experiments. In this way, the control experiment and the experiments with the different concentrations of inhibitor was carried out in the same set of measurements. All the experiments were conducted twice.
The control experiment was carried out mixing 180 μL of casein solution and 5 μL of calpain solution. The reaction was initiated by the addition of 10 μL of a 50 μM solution of CaCl2 in water, and the fluorescence was measured from the moment of the addition of Ca^2+ (time=0) and for 250-300 seconds (measuring during 20 kinetic cycles). The variation in fluorescence (ΔF) was represented against time (t). In order to test the effect of DMSO on enzyme activity, additional control experiments were conducted adding DMSO (in the quantities used in the experiments with the inhibitors), with the same result being obtained as in the control experiment.
180 μL of casein solution, 5 μL of calpain solution and 5 μL of inhibitor solution (of variable concentration) were mixed together. […]

Consider `COC(=O)/C=C1/c2ccccc2C(=O)N[C@H]1C(C)C` [Compound 3], for which the “activity as calpain inhibitor” value in data set [1] is given as “not calpain inhibitors”.

The IC50 is the concentration that inhibits the measured activity by half. Low values mean greater potency in that assay, high ones weaker potency in that assay. One may read the melting point as the temperature of the solid-liquid transition. `CC[C@H](C)[C@H](NC(=O)OCC1c2ccccc2-c2ccccc21)C(=O)Nc1ccccc1-c1ccccc1NC(=O)/C=C1/c2ccccc2C(=O)N[C@H]1[C@@H](C)CC` [Compound 21, (S,S,S,S,Z)-9H-fuorene-9-ylmethyl (1-{2′-[2-(3-sec-butyl-1-oxo-2,3-dihydro-1 H-isoquinolin-4-yliden)-acetylamino]-biphenyl-2-ylcarbamoyl}-2-methyl-butyl)-carbamate] came in with a melting point of 116 to 120 °C. In addition, the IC50 in data set [2] came to 5 µM.

For `CC[C@H](C)[C@@H]1NC(=S)c2ccccc2/C1=C/C(=O)OC` [Compound 28, methyl (S,S,Z)-(3-sec-butyl-1-thioxo-2,3-dihydro-1H-isoquinolin-4-yliden)-acetate], the melting point fell in the range of 50 to 53 °C. Also, in data set [2], the IC50 is 38 µM.

With `CC[C@H](C)[C@@H]1NC(=O)c2ccccc2/C1=C/C(=O)Nc1ccccc1-c1ccccc1NC(=O)/C=C1/c2ccccc2C(=O)N[C@H]1[C@@H](C)CC` [Compound 18, (S,S,S,S,Z,Z)-2,2′-bis-[(3-sec-butyl-1-oxo-2,3-dihydro-1H-isoquinolin-4-yliden)-acetylamino]biphenyl], the melting point fell in the range of 177 to 180 °C. In data set [2], this compound showed an IC50 of 0.742 µM.

Turning to `CC[C@H](C)[C@H](NC(=O)/C=C1/c2ccccc2C(=O)N[C@H]1[C@@H](C)CC)C(=O)N[C@H](C(=O)N[C@H](C(=O)OC)[C@@H](C)CC)[C@@H](C)CC` [Compound 26, methyl (S,S,S,S,S,S,S,S,S,Z)-2-(2-{2-[2-(3-sec-butyl-1-oxo-2,3-dihydro-1H-isoquinolin-4-yliden)-acetylamino]-3-methyl-pentanoylamino}-3-methyl-pentanoylamino)-3-methyl-pentanoate], the melting point lay in the range of 151 to 154 °C. This compound had an IC50 in data set [2] of 0.159 µM.

Take `CC[C@H](C)[C@@H]1NC(=O)c2ccccc2/C1=C/C(=O)OCC#CCOC(=O)/C=C1/c2ccccc2C(=O)N[C@H]1[C@@H](C)CC` [Compound 13]: the melting point was in the range of 85 to 87 °C. In data set [2], this compound yielded an IC50 of 59 µM.

For `CC[C@H](C)[C@@H]1NC(=O)c2ccccc2/C1=C/C(=O)Nc1ccccc1-c1ccccc1NC(=O)[C@H](Cc1ccccc1)NC(=O)OCC1c2ccccc2-c2ccccc21` [Compound 20, (S,S,S,Z)-9H-fuorene-9-ylmethyl (1-{2′-[2-(3-sec-butyl-1-oxo-2,3-dihydro-1H-isoquinolin-4-yliden)-acetylamino]-biphenyl-2-ylcarbamoyl}-2-phenyl-ethyl)-carbamate], the melting point fell in the range of 108 to 110 °C. Moreover, in data set [2], half-maximal inhibition (IC50) required 48 µM.
